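Following 48 hours of exposure in 96-well plates, responses at five concentrations were used to interpolate endpoints linearly. TGI: total growth inhibition.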

Holding throughout (test): NCI-60 cell line screen, 48 h
Experiment [1] deals with SR leukemia.
Experiment [2] deals with UACC-257 melanoma.
Experiment [3] relates to ACHN renal.
The test system of experiment [4] is IGROV1 ovarian.
For experiment [5], the system named is T-47D breast.
Experiment [6] relates to MCF7 breast.
Experiment [7] deals with SNB-75 CNS.
Experiment [8] relates to CAKI-1 renal.
The test system of experiment [9] is HCT-15 colon.
In experiment [10] the test system is NCI-H226 lung.

As to `CCOC(=O)c1c(NC(=S)Nc2ccccc2)sc2c1CCOC2`, the TGI in [1], in experiment [2], in [3], in experiment [4], in [5] and in experiment [6] was above 100 µM each time. Also, the TGI in [7] was 62.1 µM; in experiment [8], above 100 µM; in [9], above 100 µM; in experiment [10], above 100 µM.
